Assay results published in patent US8119614B2, “Substitution derivatives of N6-benzyladenosine, methods of their preparation, their use for preparation of drugs, cosmetic preparations and growth regulators, pharmaceutical preparations, cosmetic preparations and growth regulators containing these compounds” (Ustav Experimentalni Botaniky Akademie Ved Ceske Republiky, priority 2002, dated 2012).

What was measured:
HOS = assay: In vitro cytotoxic activity, Calcein AM assay, HOS; assay type: cell-based; details: 72 hours
[1] = tested on: human erythroleukaemia K562; assay: In vitro cytotoxic activity, Calcein AM assay, K-562; assay type: cell-based; details: 72 hours, read-out: IC 50 K-562
Description: (§1) One of the parameters used, as the basis for cytotoxicity assays, is the metabolic activity of viable cells. For example, a microtiter assay, which uses the Calcein AM, is now widely used to quantitate cell proliferation and cytotoxicity. For instance, this assay is used in drug screening programs and in chemosensitivity testing. Because only metabolically active cells cleave Calcein AM, these assays detect viable cells exclusively. The quantity of reduced Calcein AM corresponds to the number of vital cells in the culture.
(§2) Human T-lymphoblastic leukemia cell line CEM; promyelocytic HL-60 and monocytic U937 leukemias; breast carcinoma cell lines MCF-7; cervical carcinoma cells HELA; mouse fibroblasts NIH3T3; human erythroleukaemia K562 and human malignant melanoma cells G361 were used for routine screening of compounds. The cells were maintained in Nunc/Corning 80 cm^2 plastic tissue culture flasks and cultured in cell culture medium (DMEM with 5 g/l glucose, 2 mM glutamine, 100 U/ml penicillin, 100 μg/ml streptomycin, 10% fetal calf serum and sodium bicarbonate).
(§3) The cell suspensions that were prepared and diluted according to the particular cell type and the expected target cell density (10^4 cells per well based on cell growth characteristics) were added by pipette (80 μl) into 96/well microtiter plates. Inoculates were allowed a pre-incubation period of 24 hours at 37° C. and 5% CO2 for stabilisation. Four-fold dilutions of the intended test concentration were added at time zero in 20 μl aliquots to the microtiter plate wells. Usually, test compound was evaluated at six 4-fold dilutions. In routine testing, the highest well concentration was 166.7 μM, but it can be the matter of change dependent on the agent. All drug concentrations were examined in duplicates. Incubations of cells with the test compounds lasted for 72 hours at 37° C., in 5% CO2 atmosphere and 100% humidity. At the end of incubation period, the cells were assayed by using the Calcein AM. Ten microliters of the stock solution were pipetted into each well and incubated further for 1 hours. Fluorescence (FD) was measured with the Labsystem FIA Reader Fluoroscan Ascent (UK). The tumour cell survival (GI50) was calculated using the following equitation: GI50=(FDdrug exposed well/mean FDcontrol wells)×100%. The GI50 value, the drug concentration lethal to 50% of the tumour cells, was calculated from the obtained dose response curves (FIG. 3).

[2] = tested on: breast carcinoma cell lines MCF-7; assay: In vitro cytotoxic activity, Calcein AM assay, MCF7; assay type: cell-based, human; details: 72 hours, read-out: IC 50 MCF7
Description: as §1, §2, §3

mouse fibroblasts NIH3T3 = assay: In vitro cytotoxic activity, Calcein AM assay, NIH-3T3; assay type: cell-based; details: 72 hours, read-out: IC 50 NIH-3T3
Description: as §1, §2, §3

[3] = tested on: Human T-lymphoblastic leukemia cell line CEM; assay: In vitro cytotoxic activity, Calcein AM assay, CEM; assay type: cell-based; details: 72 hours
Description: as §1, §2, §3

promyelocytic HL-60 = assay: In vitro cytotoxic activity, Calcein AM assay, HL60; assay type: cell-based, human; details: 72 hours, read-out: IC 50 HL60
Description: as §1, §2, §3

[4] = tested on: Triticum aestivum cv. Hereward; assay: Senescence inhibition on winter wheat leaf segments (chlorophyll retention); assay type: in vivo; details: for Concentration with highest activity: chlorophyll retention in excised wheat leaf tips, 96 h dark; for Activity (%) [10^−4 mol · l^−1 BAP = 100%]: chlorophyll retention, at concentration with highest activity
Method: Seeds of winter wheat, Triticum aestivum cv. Hereward, were washed under running water for 24 hours and then sown on vermiculite soaked with Knop's solution. They were placed in the grown chamber at 15° C. with a 16/8 h light period at 50 μmol·m^−2·s^−1. After 7 days, the first leaf was fully developed and the second leaf had started to grow. A tip section of the first leaf, approximately 35 mm long, was removed from 5 seedlings and trimmed slightly to a combined weight of 100 mg. The basal ends of the five leaf tips were placed in the wells of a microtiter polystyrene plate containing 150 μl of a cytokinin solution each. The entire plate was inserted into a plastic box lined with paper tissues soaked in distilled water to prevent leaf sections from drying out. After a 96 h incubation in the dark at 25° C., the leaves were removed and chlorophyll extracted by heating at 80° C. for 10 min in 5 ml of 80% ethanol (v/v). The sample volume was then restored to 5 ml by the addition of 80% ethanol (v/v). The absorbency of the extract was recorded at 665 nm. In addition, chlorophyll extracts from fresh leaves and leaf tips incubated in deionised water were measured. From the obtained data, the concentration with highest activity was selected for each compound tested. Relative activity of the compound at this concentration was calculated (Tab. 10). The activity obtained for 10^−4 M 6-benzylaminopurine (BAP) was postulated as 100%. The values shown are means of five replicates and the whole experiment was repeated twice. The cytokinins to be tested were dissolved in dimethylsulfoxide (DMSO) and the solution brought up to 10^−3M with distilled water. This stock was further diluted in distilled water to concentrations ranging from 10^−8M to 10^−4M.

[5] = tested on: tobacco callus Nicotiana tabacum L. cv. Wisconsin 38; assay: Growth of cytokinin-dependent tobacco callus; assay type: cell-based; details: for Activity (%) [10^−5 mol · l^−1 BAP = 100%]: callus growth, at concentration with highest activity; for Concentration with highest activity: fresh callus weight after four weeks
Method: Cytokinin-dependent tobacco callus Nicotiana tabacum L. cv. Wisconsin 38 was maintained at 25° C. in darkness on modified Murashige-Skoog medium, containing per 1 liter: 4 μmol nicotinic acid, 2.4 μmol pyridoxine hydrochloride, 1.2 μmol thiamine, 26.6 μmol glycine, 1.37 μmol glutamine, 1.8 μmol myo-inositol, 30 g of sucrose, 8 g of agar, 5.37 μmol α-naphtylacetic acid (NAA) and 0.5 μmol benzylaminopurine (BAP). Subcultivation was carried out every three weeks. Fourteen days before the bioassay, the callus tissue was transferred to the media without 6-benzylaminopurine (BAP). Biological activity was determined from the increase in fresh callus weight after four weeks of cultivation. Five replicates were prepared for each cytokinin concentration and the entire test was repeated twice. From the obtained data, the concentration with highest activity was selected for each compound tested. Relative activity of the compound at this concentration was calculated (Tab. 6). […] The cytokinins to be tested were dissolved in dimethylsulfoxide (DMSO) and the solution brought up to 10^−3M with distilled water. This stock was further diluted in the respective media used for the biotest to concentrations ranging from 10^−8M to 10^−4M.

[6] = tested on: Amaranthus caudatus cotyledon/hypocotyl explants; assay: Amaranthus bioassay (betacyanin content); assay type: in vivo; details: for Concentration with highest activity: 48 h dark; for Activity (%) [10^−5 mol · l^−1 BAP = 100%]: at concentration with highest activity
Method: Standard Amaranthus bioassay was performed with several modifications. The seeds of Amaranthus caudatus var. atropurpurea were surface-sterilised in 10% N-chlorobenzenesulfonamide (w/v) for 10 min and washed 5 times in deionized water. They were placed in 15 cm Petri dishes containing paper tissues saturated with deionized water. After 72 h of cultivation at 25° C. in darkness, the roots of the seedlings were cut off. The explants, consisting of two cotyledons and hypocotyls, were placed in 5 cm Petri dishes on two layers of filter paper soaked in 1 ml of incubation medium containing 10 μmol NA2HPO4-KH2PO4, pH 6.8, 5 μmol tyrosine and the cytokinin to be tested. There were 20 explants per dish. The procedure was carried out under a green safe light in a darkroom. After a 48 h of incubation at 25° C. in darkness, betacyanin was extracted by freezing the explants in 4 ml […] acetic acid. The concentration of betacyanin was determined by comparing the absorbance at 537 nm and 620 nm as follows: ΔA=[…]-[…]. From the obtained data, the concentration with highest activity was selected for each compound tested. Relative activity of the compound at this concentration was calculated (Tab. 12). […] The values shown in table 8 are means of five replicates and the entire test was repeated twice. The cytokinins to be tested were dissolved in dimethylsulfoxide (DMSO) and the solution brought up to 10^-3M with distilled water. This stock was further diluted in the respective media used for the biotest to concentrations ranging from 10^-8M to 10^-4M. […] From the data obtained (FIG. 14) the maximum effective concentration of the tested compound was calculated as well as its relative effectiveness at this concentration (Table 12). […]

[7] = tested on: human malignant melanoma cells G361; assay: In vitro cytotoxic activity, Calcein AM assay, G-361; assay type: cell-based; details: 72 hours, read-out: IC 50 G-361
Description: as §1, §2, §3

Structure (SMILES) | IC50 (HOS) [µM] | IC50 [1] [µM] | IC50 [2] [µM] | IC50 (mouse fibroblasts NIH3T3) [µM] | IC50 [3] [µM] | IC50 (promyelocytic HL-60) [µM] | Concentration with highest activity [4] | Activity (%) [10^−4 mol · l^−1 BAP = 100%] [4] [%] | Activity (%) [10^−5 mol · l^−1 BAP = 100%] [5] [%] | Concentration with highest activity [5] | Concentration with highest activity [6] | Activity (%) [10^−5 mol · l^−1 BAP = 100%] [6] [%] | IC50 [7] [µM]
OC[C@H]1O[C@@H](n2cnc3c(NCc4ccccc4Br)ncnc32)[C@H](O)[C@@H]1O [2-bromobenzylamino, 6-(2-bromobenzylamino)purine riboside] | > 167 | 10 | > 167 | > 167 | 12.3 | 6.6 | 10^−5 mol · l^−1 | 86 ± 19 | 100 ± 4 | 10^−5 mol · l^−1 | 10^−4 mol · l^−1 | 147 ± 7 | 
OC[C@H]1O[C@@H](n2cnc3c(NCc4cccc(O)c4)nc(Cl)nc32)[C@H](O)[C@@H]1O [R2 = Cl, 3-hydroxybenzylamino] | > 167 | > 167 | > 167 | > 167 | 47.8 | 15.9 |  |  |  |  |  |  | > 167
CSc1nc(NCc2cccc(F)c2)c2ncn([C@@H]3O[C@H](CO)[C@@H](O)[C@H]3O)c2n1 [R2 = SCH3,3-fluorobenzylamino] | > 167 | 7.9 | 31 | > 167 | 8.5 | 5.2 |  |  |  |  |  |  | 28
Nc1nc(NCc2cccc(F)c2)c2ncn([C@@H]3O[C@H](CO)[C@@H](O)[C@H]3O)c2n1 [R2 = NH2,3-fluorobenzylamino] | > 167 | 12 | 36 | > 167 | 21 | 3.4 |  |  |  |  |  |  | 21
COc1cccc(CNc2nc(N)nc3c2ncn3[C@@H]2O[C@H](CO)[C@@H](O)[C@H]2O)c1 [R2 = NH2,3-methoxyxybenzylamino] | > 167 | > 167 | > 167 | > 167 | 13.8 | 8.9 |  |  |  |  |  |  | > 167
COc1cccc(CNc2nc(Cl)nc3c2ncn3[C@@H]2O[C@H](CO)[C@@H](O)[C@H]2O)c1 [R2 = Cl, 3-methoxyxybenzylamino, 2-chloro-6-(3-methoxybenzylamino)purine riboside] | > 167 | > 167 | > 167 | > 167 | 6.5 | 4.1 |  |  |  |  |  |  | > 167
Cc1ccc(CNc2ncnc3c2ncn3[C@@H]2O[C@H](CO)[C@@H](O)[C@H]2O)cc1 [4-methylbenzylamino, 6-(4-methylbenzylamino)purine riboside] | > 167 | > 167 | > 167 | > 167 | > 167 | > 167 | 10^−4 mol · l^−1 | 55 ± 5 | 95 ± 6 | 10^−6 mol · l^−1 | 10^−5 mol · l^−1 | 32 ± 7 | 
OC[C@H]1O[C@@H](n2cnc3c(NCc4ccc(F)c(Cl)c4)ncnc32)[C@H](O)[C@@H]1O [3-chloro-4-fluorobenzylamino, 6-(3-chloro-4-fluorobenzylamino)purine riboside] | > 167 | 4.1 | > 167 | > 167 | 3.4 | 3.5 | 10^−4 mol · l^−1 | 156 ± 10 | 87 ± 4 | 10^−6 mol · l^−1 | 10^−4 mol · l^−1 | 82 ± 5 | 
OC[C@H]1O[C@@H](n2cnc3c(NCc4ccc(Br)cc4)ncnc32)[C@H](O)[C@@H]1O [4-bromobenzylamino, 6-(4-bromobenzylamino)purine riboside] | > 167 | 68.2 | > 167 | > 167 | 20.6 | 47.4 | 10^−4 mol · l^−1 | 76 ± 11 | 15 ± 11 | 10^−6 mol · l^−1 | 10^−5 mol · l^−1 | 30 ± 8 | 
OC[C@H]1O[C@@H](n2cnc3c(NCc4cc(F)cc(F)c4)ncnc32)[C@H](O)[C@@H]1O [3,5-difluorobenzylamino, 6-(3,5-difluorobenzylamino)purine riboside] | > 167 | > 167 | > 167 | > 167 | 24.5 | 9.1 | 10^−4 mol · l^−1 | 195 ± 14 | 95 ± 3 | 10^−6 mol · l^−1 | 10^−4 mol · l^−1 | 88 ± 1 | 
